This is an account of results in patent publication US11786597B2, “Ionic liquids for transdermal drug delivery” (priority 2013, dated 2023).

Data set [1] can be described thus: Viscosity (Viscolab 3000 viscometer). It is filed as physicochemical. The procedure: Viscosity was measured on 1 mL samples with a Viscolab 3000 viscometer (Cambridge Viscosity, Medford, MA). […] Low-temperature differential scanning calorimetry (DSC) was performed on a DSC882e instrument (Mettler-Toledo Inc., Columbus, Ohio) under N2 atmosphere over two complete scans of a temperature range of −60 to 120° C. with a ramp rate of 10° C. per minute and a sample size of 18-21 mg in an aluminum crucible.

Data set [2] can be described thus: Calculations of molarity and ionic strength. The class given is physicochemical. The following applies: neat IL, Table 5.
Another data set in a line: Conductivity of neat IL. It is filed as physicochemical. How it is done: (§1) Determinations of conductivity were made on an ION450 benchtop meter (Radiometer Analytical) with a 2-pole electrode designed for use in viscous liquids (Radiometer Analytical CDC241-9) and calibrated with KCl. Conductivity was measured three times per sample on stirred 3 mL volumes of neat IL at 25° C. Density was measured three times per IL using a 1 mL volumetric flask and an analytical balance.

The test system of data set [3] is Normal human bronchial epithelial (NHBE) cells. Put plainly: WST-1 proliferation assay, 24 h exposure to diluted ILs. The following applies: for IC50: NHBE cells. The procedure: Normal human bronchial epithelial (NHBE) cells were purchased (Lonza, Walkersville, MD) and cultured using bronchial epithelial cell growth media (BEGM, Clonetics Bullet Kit, Lonza, Walkersville, MD) on 100 mm tissue culture treated Petri dishes (Santa Cruz Biotechnologies, Santa Cruz, CA) coated with 50 μg/mL type I rat tail collagen (BD Biosciences, Bedford, MA). Cells were stored in an incubator with a humidified atmosphere at 37° C. and 5% CO2. Cells were fed two times weekly and passaged via trypsinization. Experimentation was performed in triplicate on cells harvested from passages 3 to 7.
NHBE cells were plated in 96-well tissue culture plates at a concentration of 1.5×10^4 cells/well in a volume of 200 μL and allowed to acclimate overnight. On the day of experimentation, treatment plates were prepared using stock ionic liquid diluted in BEGM and then serially diluted 3-fold for a total of 7 concentrations. The 96-well plates containing cells were then aspirated and the treatments (150 μL/well) were carefully transferred from the prep plate to the cells. Cells were exposed to the ionic liquids for 24 hours. Two hours prior to the end of the exposure time, positive control cell wells were aspirated, and a solution of 1% Triton-100 (150 μL/well) was added.
To assess cellular proliferation, water-soluble tetrazolium (WST-1) reagent (Clontech, Mountain View, CA) was added directly to cells, at a 1:10 dilution of the remaining media volume (7.5 μL of WST-1 reagent was added per 75 μL remaining cell culture media). NHBE cells exposed to media only and 1% Triton in BEGM were included as controls. Ionic liquid controls at the highest concentrations tested were included in wells without cells to rule out ionic liquid/assay reagent interference.
(In general: Tetrazolium assays rely on reduction of a dye to a coloured formazan, in cell work by metabolically active cells.)

A short description of data set [4]: Determination of lipophilicity (octanol/water distribution by UV absorbance). It is filed as physicochemical. The following applies: for percent in octanol: after extraction with water. The procedure: A 250 mL volume of n-octanol was shaken with 100 mL of ddH2O and left overnight. […]
The absorption of the octanol layer and water layers were measured and compared with the absorbance of the stock solutions. Measurements were repeated three times and the distribution coefficients were reported as the average. The percent of IL in octanol was calculated as the absorbance of the octanol layer after extraction divided by the absorbance of IL in octanol before extraction. The water/octanol distribution coefficient was calculated as the logarithm of the percent of IL in octanol divided by the percent of IL in water.

The nature of data set [5]: Density (volumetric flask and balance). It is filed as physicochemical. How it is done:
as §1

Data set [6] in a line: Solubility in water (physical characterization). To be noted: 25° C.
Another data set deals with porcine skin. Description: Skin transport of 3H-Mannitol in Franz diffusion cell. It is filed as in vitro ADME. The procedure: FIG. 1 is a schematic of the skin transport experiment set-up and analysis. Porcine skin was loaded into the Franz diffusion cell (FDC) with the stratum corneum (SC) facing up. Skin was incubated in contact with 3H-labeled drug dissolved in donor solution for 24 hrs, at 37° C., with stirring. After 24 hrs the donor solution was removed and skin thoroughly washed. The SC was separated from the epidermis by tape stripping. Ten tape strips were applied, each tape corresponding to 1 “layer” of SC. Ten tape strips were assumed to remove the entire SC. Epidermis was separated from dermis using a razor blade. Acceptor solution was collected, and drug transport into various tissue layers was quantified by scintillation counter.
3H-labeled Mannitol and Cefadroxil were obtained from American Radiolabeled Chemicals, Inc. and Moravek, respectively. FDCs were used to assess the transport enhancement of ionic liquids using a previously established protocol. Karande, et al., “Discovery of transdermal penetration enhancers by high-throughput screening”, Nat Biotechnol, 22(2): 192-7 (2004). Briefly, the acceptor chamber was filled with degassed PBS and a small stir bar added. Thawed porcine skin was clamped in place between the acceptor and donor chambers with the SC facing up. Care was taken to ensure no air bubbles resided in the acceptor chamber. Ionic liquids or PBS (control) were spiked with 3H-labeled drug (Mannitol and Cefadroxil) to a final concentration of 10 μCi/ml. 300 μL of donor solution was added to the donor chamber and incubated in contact with the SC for 24 hr, at 37° C., with stirring.
After 24 hr, the donor solution was removed, and the skin was thoroughly washed and dried.
SC was separated from epidermis by tape stripping. Ten tape strips were performed in an identical fashion, with each tape corresponding to 1 SC “layer”. Ten strips were assumed to remove the majority of the SC. Epidermis was separated from dermis with a razor blade, and the acceptor solution was collected from the acceptor chamber. Samples from each tissue layer and acceptor solution were dissolved in Soluble (Perkin Elmer, Waltham, MA) overnight and the concentration of radiolabeled solute was measured using a scintillation counter (Packard Tri-Carb 2100 TR, Meriden, CT).

The test system of data set [7] is P. aeruginosa (Pseudomonas) biofilm. To be noted: neat IL.
Data set [8] relates to S. enterica (Salmonella) biofilm. The following applies: neat IL.
Setting [9] is: read-out: IC50 at 24 h, WST, 24 h, lower limits where solubility precluded IC50.

Where “and” joins values, the source holds several entries; their conditions need not be identical. Identical values can stand only once. Like-named read-outs stand apart in the source and are kept apart here. Marks after values point to notes of the source that are not given here.

In the case of `CCCC[N+]1(C)CCCC1.O=S(=O)([N-]S(=O)(=O)C(F)(F)F)C(F)(F)F` [LANL-1, 1-Butyl-1-methylpyrrolidinium (BMP)—bistriflimide (NTf2)], the viscosity (usually the resistance of a fluid to flow) in [1] (25° C.) was 72.7 cP; in data set [1] (Table 5), 72.72 cP. Also, in data set [2], the ionic strength was 3.28 M. Besides, the molarity in [2] was 3.28 M. For the same molecule, the conductivity in the data set “Conductivity of neat IL” (25° C.) and in the data set “Conductivity of neat IL” (Table 5) was 1.99 mS/cm in each case. Further, the “toxicity to human primary cells” value in data set [3] was “low toxicity”. Moreover, in data set [3] (setting [9]), the IC50 (commonly the concentration at which inhibition is half-maximal) was above 2 mM. The “partitioning into octanol” value in [4] is “partitioned poorly into octanol”. In addition, the percent in octanol in data set [4] (Table 3) came to 20% +/− 7%. Moreover, the “percentage in the water phase” value in data set [4] (starting concentration of 0.2 M in octanol) stood at 51%. Further, the “percentage not incorporated in octanol or water” value in [4] (starting concentration of 0.2 M in octanol, third phase) was 29%. Moreover, the density in data set [5] (25° C.) and in [5] (Table 5) was 1.39 g/mL in each case.
Turning to `C[N+](C)(C)CCO.O=S(=O)([N-]S(=O)(=O)C(F)(F)F)C(F)(F)F` [LANL-12, choline-NTf2], the viscosity in data set [1] (25° C.) and in data set [1] (Table 5) was 125 cP throughout. Moreover, the ionic strength in data set [2] was 4.40 M. Moreover, the molarity in data set [2] is listed as 4.40 M. Also, the solubility in water in data set [6] is 1700 mM. Moreover, the conductivity in the data set “Conductivity of neat IL” (25° C.) was found to be 1.46 mS/cm; in “Conductivity of neat IL” (Table 5) it was 1.460 mS/cm. Also, the percent in octanol in data set [4] (Table 3) is recorded as 67 +/− 9%. In addition, the “log Po/w” value in data set [4] (octanol/water, Table 3) is recorded as 0.31. The density (in general, mass per unit of volume) in [5] (25° C.) was 1.5 g/mL and 1.53 g/mL; in [5] (Table 5), 1.54 g/mL.
Take `CCCCCCCC/C=C\CCCCCCCC(=O)O.CCCCCCCC/C=C\CCCCCCCC(=O)[O-].C[N+](C)(C)CCO`: the viscosity is on record as 880 cP in data set [1] (25° C.), 162.3^b cP in data set [1] (Table 5) and 162 cP in data set [1] (text b171). In addition, in data set [2], the ionic strength is recorded as 1.47 M. The molarity in data set [2] is 1.47 M. Also, the values for the conductivity in “Conductivity of neat IL” (25° C.) and in the data set “Conductivity of neat IL” (Table 5) were 0.087 mS/cm and 0.0871^b mS/cm, respectively. The “toxicity to human primary cells” value in [3] is “very toxic”. In [3] (text b165), this molecule registered an IC50 of 0.034 mM. For the same molecule, the “partitioning into octanol” value in data set [4] was “partitioned well into octanol”. Also, the “percent moving into the octanol layer” value in [4] (after 1 min of agitation) was 95%. Besides, the percent in octanol in [4] (Table 3) is recorded as 95 +/− 3%. The density in data set [5] (25° C.), in [5] (Table 5) and in data set [5] (text b173) was 0.98 g/mL in each case.
With `NC(N)=O` [LANL-6, urea-choline], the IC50 in [3] (text b165) and in data set [3] (setting [9]) was above 10 mM in each case.
Regarding `O=S(=O)(NS(=O)(=O)C(F)(F)F)C(F)(F)F` [LANL-12, choline-NTf2], in [3] (setting [9]), the IC50 was determined as 1.7 mM.
With `CCCCCCCC/C=C\CCCCCCCC(=O)[O-].CCCCCCCCCCCCCC[P+](CCCCCC)(CCCCCC)CCCCCC` [LANL-19, [PC14H29(C6H13)3][oleate]], the figures for the viscosity in [1] (25° C.) and in [1] (Table 5) were 299 cP and 300 cP, respectively. Further, the “loss/partitioning of solute to the acceptor solution” value with porcine skin (3H-Mannitol) is reported as “no additional loss of solute to the acceptor solution”. The “transport enhancement into/through all layers of the skin” value in the data set on porcine skin (3H-Mannitol, relative to PBS control) is listed as 5-10 fold. In addition, the “skin transport properties” value with porcine skin (materials in lower right portion of Walden plot) is given as “best skin transport properties”. In data set [2], the ionic strength is 1.24 M. Also, the molarity in [2] is 1.15 M. Besides, the conductivity in “Conductivity of neat IL” (25° C.) came to 0.016 mS/cm; in “Conductivity of neat IL” (Table 5), 0.0162 mS/cm. Further, the “log Po/w” value in [4] came out at 1.14. In addition, the percent in octanol in [4] (Table 3) is 93 +/− 2%. Moreover, the density in [5] (25° C.) and in data set [5] (Table 5) was 0.882 g/mL each time.
As for `CC(C)=CCC/C(C)=C/C(=O)[O-].CCCCCCCCCCCCCC[P+](CCCCCC)(CCCCCC)CCCCCC` [LANL-22, [PC14H29(C6H13)3][geranate]], the figures for the viscosity in data set [1] (25° C.) and in data set [1] (Table 5) were 122 cP and 122.3 cP, respectively. Further, the ionic strength in data set [2] is on record as 1.43 M. In addition, the molarity in [2] is 1.43 M. Also, the conductivity in “Conductivity of neat IL” (25° C.) and in the data set “Conductivity of neat IL” (Table 5) was 0.156 mS/cm in each case. Besides, in [4], the “log Po/w” value is on record as 0.86. Further, the percent in octanol in data set [4] (Table 3) is listed as 88 +/− 6%. Further, the density in [5] (25° C.) and in data set [5] (Table 5) was 0.931 g/mL in each case.
As for `CCCCCC(=O)[O-].CCCCCCCCCCCCCC[P+](CCCCCC)(CCCCCC)CCCCCC` [LANL-20, [PC14H29(C6H13)3][hexanoate]], the viscosity in [1] (25° C.) and in data set [1] (Table 5) was 154 cP in each case. In addition, the ionic strength in data set [2] is reported as 1.63 M. The molarity in [2] is on record as 1.63 M. Besides, the “solubility in water” value in data set [6] is “trace”. In addition, the conductivity in the data set “Conductivity of neat IL” (25° C.) and in the data set “Conductivity of neat IL” (Table 5) was 0.488 mS/cm throughout. Also, in data set [4] (Table 3), the percent in octanol is given as 65 +/− 14%. Further, the “log Po/w” value in data set [4] (octanol/water, Table 3) amounted to 0.26. Moreover, the density in data set [5] (25° C.) and in [5] (Table 5) was 0.912 g/mL throughout.
choline malonate [LANL-5]: the values for the viscosity in [1] (25° C.) and in data set [1] (Table 5) were 920 cP and 920.1 cP, respectively. Besides, the ionic strength in data set [2] is reported as 5.20 M. Besides, the molarity in [2] is 5.20 M. Moreover, the conductivity in “Conductivity of neat IL” (25° C.) and in the data set “Conductivity of neat IL” (Table 5) was 0.429 mS/cm throughout. Also, the “anti-biofilm efficacy” value in data set [7] and in [8] was “effective” in each case. The density in data set [5] (25° C.) was 1.266 g/mL; in data set [5] (Table 5), 1.27 g/mL; in [5] (text b173), 1.27 g/mL.
